{"source": "patent US9855245B2", "about": "“Methods for improving lipid profiles using atrasentan” (AbbVie Inc., priority 2013, dated 2018)", "key": {"[1]": {"system": "subjects with type 2 diabetes and nephropathy", "assay": "Example 3: Phase 2b randomized, double-blind, placebo-controlled 8-week study with thoracic bioimpedance", "type": "in vivo, human", "conditions": "for Death / Fatal adverse event: N = 16; for UACR Change from Baseline LS Mean (SE) / UACR Geometric Mean Change (Percent): baseline to final on-treatment measurement", "description": "This study also included measurement of thoracic bioimpedance to assess the potential for thoracic fluid retention with atrasentan.\nAn equal percentage of subjects in all 3 groups experienced an adverse event (81.3%). […] (Table 17).\nA mean decrease of 4 ohms in thoracic bioimpedance, as measured by the ZOE® Fluid Status Monitor, is considered clinically indicative of thoracic fluid overload. Mean thoracic bioimpedance fluctuated in all treatment groups over time, with greater mean changes in the 2 atrasentan groups than in the placebo group."}, "[2]": {"system": "ob-ZSF1 rats", "assay": "Example 5: preclinical study of hypotensive synergy, mean arterial pressure", "type": "in vivo, rat", "description": "In the example, a preclinical animal model is used to evaluate whether atrasentan and an ARB cause a synergistic hypotensive effect."}, "[3]": {"assay": "Example 6: modeling data on edema risk based on a Phase 2A study (NCT00920764)", "parameters": "species or system human", "description": "The graph was made by overlaying receptor occupancy data. (See also Table 20, below.)"}, "[4]": {"system": "subjects with type 2 diabetes and nephropathy", "assay": "Example 2: Phase 2b randomized, double-blind, placebo-controlled 12-week study conducted in Japan", "quoted_text": "The primary efficacy endpoint in this study was the change from Baseline to Week 12 in log-transformed UACR with the primary analysis conducted using MMRM with fixed effects for treatment, visit, and treatment-by-visit interaction, with baseline measurement and baseline-by-visit interaction as covariates.\nAll safety analyses were performed on treatment-emergent adverse events only. Treatment-emergent adverse events were defined as those that first occurred or worsened on or after the date of first dose of study drug through 30 days after the last dose of study drug."}}}
{"smiles": "CCCCN(CCCC)C(=O)CN1C[C@H](c2ccc3c(c2)OCO3)[C@@H](C(=O)O)[C@@H]1c1ccc(OC)cc1", "note": "[Atrasentan, (2R,3R,4S)-4-(1,3-benzodioxol-5-yl)-1-[2-(dibutylamino)-2-oxoethyl]-2-(4-methoxyphenyl)pyrrolidine-3-carboxylic acid]", "values": [{"measurement": "Death", "setting": "[1]; 0.5 mg", "result": "0 N (%) of Subjects"}, {"measurement": "Fatal adverse event", "setting": "[1]; 0.5 mg", "result": "0 N (%) of Subjects"}, {"measurement": "Cholesterol, Difference (95% CI) from placebo", "setting": "[1]; 0.5 mg/day", "result": "3.6 (−19.26, 26.46) mg/dL"}, {"measurement": "Cholesterol, Final On-Treatment Visit Mean (SD)", "setting": "[1]; 0.5 mg/day", "result": "155.1 (40.36) mg/dL"}, {"measurement": "Cholesterol, LS Mean Change from Baseline (SE)", "setting": "[1]; 0.5 mg/day", "result": "−1.5 (7.05) mg/dL"}, {"measurement": "HDL-C, Difference (95% CI) from placebo", "setting": "[1]; 0.5 mg/day", "result": "1.9 (−3.54, 7.28) mg/dL"}, {"measurement": "HDL-C, Final On-Treatment Visit Mean (SD)", "setting": "[1]; 0.5 mg/day", "result": "41.1 (9.92) mg/dL"}, {"measurement": "HDL-C, LS Mean Change from Baseline (SE)", "setting": "[1]; 0.5 mg/day", "result": "−0.5 (1.67) mg/dL"}, {"measurement": "Had ≧30% Reduction in UACR and No Edema (no moderate or severe adverse event of edema)", "setting": "[1]; 0.5 mg/day", "result": 31.3, "unit": "%"}, {"measurement": "LDL-C, Difference (95% CI) from placebo", "setting": "[1]; 0.5 mg/day", "result": "3.1 (−19.49, 25.75) mg/dL"}, {"measurement": "LDL-C, Final On-Treatment Visit Mean (SD)", "setting": "[1]; 0.5 mg/day", "result": "68.1 (23.33) mg/dL"}, {"measurement": "LDL-C, LS Mean Change from Baseline (SE)", "setting": "[1]; 0.5 mg/day", "result": "−0.3 (6.67) mg/dL"}, {"measurement": "Percentage of Subjects with ≧30% Reduction in Log-Transformed UACR from Baseline to Final Measurement", "setting": "[1]; 0.5 mg/day", "result": 50.0, "unit": "%"}, {"measurement": "Percentage of Subjects with ≧40% Reduction in Log-Transformed UACR from Baseline to Final Measurement", "setting": "[1]; 0.5 mg/day", "result": 31.3, "unit": "%"}, {"measurement": "Percentage of Subjects with ≧50% Reduction in Log-Transformed UACR from Baseline to Final Measurement", "setting": "[1]; 0.5 mg/day", "result": 18.8, "unit": "%"}, {"measurement": "Triglycerides, Difference (95% CI) from placebo", "setting": "[1]; 0.5 mg/day", "result": "−29.8 (−14.09, 44.49) mg/dL"}, {"measurement": "Triglycerides, Final On-Treatment Visit Mean (SD)", "setting": "[1]; 0.5 mg/day", "result": "206.1 (71.42) mg/dL"}, {"measurement": "Triglycerides, LS Mean Change from Baseline (SE)", "setting": "[1]; 0.5 mg/day", "result": "−2.3 (22.89) mg/dL"}, {"measurement": "geometric mean reduction in UACR, baseline to final on-treatment measurement", "setting": "[1]; 0.5 mg/day", "result": 27.7, "unit": "%"}, {"measurement": "UACR Between-group Comparison Difference (90% CI)", "setting": "[1]; 0.5 mg/day vs placebo", "result": "0.04 (−0.28, 0.36)"}, {"measurement": "UACR Change from Baseline LS Mean (SE)", "setting": "[1]; 0.5 mg/day", "result": "−0.32", "unit": "log mg/g creatinine"}, {"measurement": "UACR Geometric Mean Change (Percent)", "setting": "[1]; 0.5 mg/day", "result": "−27.69", "unit": "%"}, {"measurement": "Death", "setting": "[1]; 1.25 mg", "result": "0 N (%) of Subjects"}, {"measurement": "Fatal adverse event", "setting": "[1]; 1.25 mg", "result": "0 N (%) of Subjects"}, {"measurement": "Cholesterol, Difference (95% CI) from placebo", "setting": "[1]; 1.25 mg/day", "result": "−14.7 (−37.99, 8.54) mg/dL"}, {"measurement": "Cholesterol, Final On-Treatment Visit Mean (SD)", "setting": "[1]; 1.25 mg/day", "result": "169.4 (46.02) mg/dL"}, {"measurement": "Cholesterol, LS Mean Change from Baseline (SE)", "setting": "[1]; 1.25 mg/day", "result": "−19.9 (7.30) mg/dL"}, {"measurement": "HDL-C, Difference (95% CI) from placebo", "setting": "[1]; 1.25 mg/day", "result": "−1.4 (−6.89, 4.13) mg/dL"}, {"measurement": "HDL-C, Final On-Treatment Visit Mean (SD)", "setting": "[1]; 1.25 mg/day", "result": "53.9 (22.23) mg/dL"}, {"measurement": "HDL-C, LS Mean Change from Baseline (SE)", "setting": "[1]; 1.25 mg/day", "result": "−3.7 (1.73) mg/dL"}, {"measurement": "Had ≧30% Reduction in UACR and No Edema (no moderate or severe adverse event of edema)", "setting": "[1]; 1.25 mg/day", "result": 28.6, "unit": "%"}, {"measurement": "LDL-C, Difference (95% CI) from placebo", "setting": "[1]; 1.25 mg/day", "result": "−9.8 (−33.30, 13.64) mg/dL"}, {"measurement": "LDL-C, Final On-Treatment Visit Mean (SD)", "setting": "[1]; 1.25 mg/day", "result": "78.9 (37.01) mg/dL"}, {"measurement": "LDL-C, LS Mean Change from Baseline (SE)", "setting": "[1]; 1.25 mg/day", "result": "−13.3 (7.21) mg/dL"}, {"measurement": "Percentage of Subjects with ≧30% Reduction in Log-Transformed UACR from Baseline to Final Measurement", "setting": "[1]; 1.25 mg/day", "result": 42.9, "unit": "%"}, {"measurement": "Percentage of Subjects with ≧40% Reduction in Log-Transformed UACR from Baseline to Final Measurement", "setting": "[1]; 1.25 mg/day", "result": 42.9, "unit": "%"}, {"measurement": "Percentage of Subjects with ≧50% Reduction in Log-Transformed UACR from Baseline to Final Measurement", "setting": "[1]; 1.25 mg/day", "result": 35.7, "unit": "%"}, {"measurement": "Triglycerides, Difference (95% CI) from placebo", "setting": "[1]; 1.25 mg/day", "result": "−31.0 (−108.09, 46.10) mg/dL"}, {"measurement": "Triglycerides, Final On-Treatment Visit Mean (SD)", "setting": "[1]; 1.25 mg/day", "result": "187.1 (115.90) mg/dL"}, {"measurement": "Triglycerides, LS Mean Change from Baseline (SE)", "setting": "[1]; 1.25 mg/day", "result": "−3.5 (24.59) mg/dL"}, {"measurement": "geometric mean reduction in UACR, baseline to final on-treatment measurement", "setting": "[1]; 1.25 mg/day", "result": 37.4, "unit": "%"}, {"measurement": "total cholesterol, LDL-C, and triglycerides compared with placebo", "setting": "[1]; 1.25 mg/day", "result": "greater mean decreases"}, {"measurement": "UACR Between-group Comparison Difference (90% CI)", "setting": "[1]; 1.25 mg/day vs placebo", "result": "−0.11 (−0.43, 0.21)"}, {"measurement": "UACR Change from Baseline LS Mean (SE)", "setting": "[1]; 1.25 mg/day", "result": "−0.47", "unit": "log mg/g creatinine"}, {"measurement": "UACR Geometric Mean Change (Percent)", "setting": "[1]; 1.25 mg/day", "result": "−37.45", "unit": "%"}, {"measurement": "decrease in MAP", "setting": "[2]; 1.5 mg/kg/day combined with losartan (10 mg/kg/day)", "result": "approximately the same as the decrease in MAP when losartan was administered alone"}, {"measurement": "mean arterial pressure (MAP)", "setting": "[2]; alone at 1.5 mg/kg/day or 5 mg/kg/day", "result": "did not significantly affect mean arterial pressure"}, {"measurement": "Risk of edema", "setting": "[3]; Dose 0.25 mg", "result": 15, "unit": "%"}, {"measurement": "Risk of edema", "setting": "[3]; Dose 0.75 mg", "result": 22, "unit": "%"}, {"measurement": "Risk of edema", "setting": "[3]; Dose 1.75 mg", "result": 43, "unit": "%"}, {"measurement": "Any adverse event", "setting": "[4]; 0.75 mg, N = 19", "result": "17 (89.5) N (%) of Subjects"}, {"measurement": "Any adverse event leading to discontinuation of study drug", "setting": "[4]; 0.75 mg, N = 19", "result": "1 (5.3) N (%) of Subjects"}, {"measurement": "Death", "setting": "[4]; 0.75 mg, N = 19", "result": "0 N (%) of Subjects"}, {"measurement": "Fatal adverse event", "setting": "[4]; 0.75 mg, N = 19", "result": "0 N (%) of Subjects"}, {"measurement": "Possibly or probably drug-related adverse event", "setting": "[4]; 0.75 mg, N = 19", "result": "7 (36.8) N (%) of Subjects"}, {"measurement": "Serious adverse event", "setting": "[4]; 0.75 mg, N = 19", "result": "3 (15.8) N (%) of Subjects"}, {"measurement": "Severe adverse event", "setting": "[4]; 0.75 mg, N = 19", "result": "1 (5.3) N (%) of Subjects"}, {"measurement": "Cholesterol, Difference (95% CI) from placebo", "setting": "[4]; 0.75 mg/day", "result": "−26.1 (−42.77, −9.33) mg/dL"}, {"measurement": "Cholesterol, Final On-Treatment Visit Mean (SD)", "setting": "[4]; 0.75 mg/day", "result": "173.5 (30.52) mg/dL"}, {"measurement": "Cholesterol, LS Mean Change from Baseline (SE)", "setting": "[4]; 0.75 mg/day", "result": "−28.0 (5.27) mg/dL"}, {"measurement": "HDL-C, Difference (95% CI) from placebo", "setting": "[4]; 0.75 mg/day", "result": "−1.0 (−6.89, 4.91) mg/dL"}, {"measurement": "HDL-C, Final On-Treatment Visit Mean (SD)", "setting": "[4]; 0.75 mg/day", "result": "48.8 (12.65) mg/dL"}, {"measurement": "HDL-C, LS Mean Change from Baseline (SE)", "setting": "[4]; 0.75 mg/day", "result": "−2.8 (1.86) mg/dL"}, {"measurement": "Had ≧30% Reduction in UACR and No Edema (no moderate or severe adverse event of edema)", "setting": "[4]; 0.75 mg/day", "result": "8 (42.1) Number (%) of Subjects"}, {"measurement": "Hemoglobin, Difference (95% CI) from placebo", "setting": "[4]; 0.75 mg/day", "result": "−1.22 (−1.863, −0.586) g/dL"}, {"measurement": "Hemoglobin, Final On-Treatment Visit Mean (SD)", "setting": "[4]; 0.75 mg/day", "result": "11.74 (1.963) g/dL"}, {"measurement": "LDL-C, Difference (95% CI) from placebo", "setting": "[4]; 0.75 mg/day", "result": "−19.4 (−33.56, −5.30) mg/dL"}, {"measurement": "LDL-C, Final On-Treatment Visit Mean (SD)", "setting": "[4]; 0.75 mg/day", "result": "94.4 (29.10) mg/dL"}, {"measurement": "LDL-C, LS Mean Change from Baseline (SE)", "setting": "[4]; 0.75 mg/day", "result": "−18.6 (4.45) mg/dL"}]}
